Measurements taken from patent US8222419B2, “Oxepin derivative” (Nippon Zoki Pharmaceutical Co., Ltd., priority 2006, dated 2012).
Where two headings read alike, the source gives them in different places.

Legend:
[1] = system: histamine-induced vascular hyperpermeability; test: Rat histamine-induced vascular hyperpermeability reaction (in vivo antihistamine action); conditions: SD male rat, oral administration 1 hour before intracutaneous histamine (20 μg/location), Evans Blue leakage after 30 minutes
Description: Rat Histamine-Induced Vascular Hyperpermeability Reaction (in Vivo Antihistamine Action)
An SD male rat (SPF) of 180 g in weight was previously fed for one week or more by allowing the rat to take a solid feed and tap water ad libitum, under the environment setting of a temperature of 22° C., humidity of 55% and an artificial illumination of 12 hours a day (light phase 8 am to 8 pm), and the rat was fasted overnight to be used for the experiment. Histamine-dihydrochloride (hereinafter referred to as histamine) and Evans Blue were used by dissolving each in physiological saline upon use. A substance to be tested was dissolved in water for injection or suspended in 0.5% carboxymethyl cellulose sodium, and the rat was orally administered with the solution or suspension (dose volume: 5 mL/kg body weight). After 1 hour from the administration, the physiological saline and the histamine solution were each intracutaneously injected to two locations (20 μg/0.05 ml/location) each on a back part of the rat of which hair was sheared with an electric clipper while anesthetizing with an ether. A 0.5% Evans Blue-containing physiological saline was injected intravenously to the tail (1 mL/200 g body weight) of the rat immediately before the intracutaneous injection of the histamine.
After 30 minutes, the animal was decapitated, and allowed to bleed lethally, and the skin was removed to measure an amount of leaked pigment in the blue-stained portion. The measurement of the amount of leaked pigment was carried out as follows. Skins of the pigment leaking site were cut out at two locations, 1 mL of a 2 mol/L aqueous potassium hydroxide solution was added thereto in a test tube, and the test tube was allowed to stand overnight at 37° C. to dissolve. Thereafter, 6 mL of a 1:3 mixed solution of 0.67 mol/L phosphoric acid and acetone was added to the solution, and the mixture was vigorously shaken for 10 minutes. Thereafter, the mixture was filtered, and the absorbance of the filtrate at 620 nm was measured. The absorbance obtained from the two locations of the sites injected with physiological saline, obtained as blank value, was used for a compensation. The amount of leaked pigment was calculated from the calibration curve of Evans Blue at 620 nm.

H1 receptor = molecular target: T1, H1 receptor (Mus musculus, UniProt P70174); test: Murine intracranial H1 receptor content (ex vivo), 3H-pyrilamine binding in brain homogenate after oral dosing; conditions: for ID50 (mg/kg)/ED50 (mg/kg): ID50 of intracranial receptor binding test (Table 7) divided by ED50 of histamine-induced vascular hyperpermeability test (Table 6); for ED50: mouse
T1 construct: The excised brain tissue was homogenized with Polytron; from tissue; host or cells: entire brain except cerebellum and medulla oblongata, homogenate
T1 sequence (P70174 whole entry): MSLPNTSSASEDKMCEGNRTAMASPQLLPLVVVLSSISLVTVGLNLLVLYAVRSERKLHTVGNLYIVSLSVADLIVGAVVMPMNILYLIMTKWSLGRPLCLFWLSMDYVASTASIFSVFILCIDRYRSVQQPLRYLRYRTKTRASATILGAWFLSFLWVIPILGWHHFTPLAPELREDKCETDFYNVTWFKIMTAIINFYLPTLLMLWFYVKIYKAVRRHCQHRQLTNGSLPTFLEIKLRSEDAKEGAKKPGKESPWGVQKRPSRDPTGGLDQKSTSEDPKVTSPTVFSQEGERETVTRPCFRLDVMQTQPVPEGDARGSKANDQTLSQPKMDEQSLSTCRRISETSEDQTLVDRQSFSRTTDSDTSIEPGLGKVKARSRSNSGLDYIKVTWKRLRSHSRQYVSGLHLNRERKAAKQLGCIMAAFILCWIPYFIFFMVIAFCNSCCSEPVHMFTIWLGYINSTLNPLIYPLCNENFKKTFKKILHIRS

[2] = oral administration, brain excised after 1 hour, 3H-pyrilamine 2 nmol/L binding to brain homogenate, read-out: ID50 (the source's name)

| Structure (SMILES) | melting point | other results |
| --- | --- | --- |
| CN1CCC(=C2c3ccccc3COc3ccc(CN)cc32)CC1.Cl.Cl | 140 °C (dec.) |  |
| CCOC(=O)c1ccc2c(c1)C(=C1CCN(C)CC1)c1ccccc1CO2.Cl | 270 °C (dec.) |  |
| CN1CCC(=C2c3ccccc3COc3ccc(C=CCO)cc32)CC1.Cl | 118 °C (dec.) |  |
| COC(=O)C=Cc1ccc2c(c1)C(=C1CCN(C)CC1)c1ccccc1CO2.Cl | 244 °C (dec.) |  |
| CN1CCC(=C2c3ccccc3COc3ccc(C(=O)O)cc32)CC1 [Compound 1, 11-(1-Methylpiperidin-4-ylidene)-6,11-dihydrodibenz[b,e]oxepin-2-carboxylic acid] |  | ED50 [1]: 0.046 mg/kg; ID50 (mg/kg)/ED50 (mg/kg) (H1 receptor): 27.2; ED50 (H1 receptor; [2]): 1.25 mg/kg |
| CCOC(=O)CNC(=O)c1ccc2c(c1)C(=C1CCN(C)CC1)c1ccccc1CO2 [Compound 3, Ethyl {[11-(1-methylpiperidin-4-ylidene)-6,11-dihydrodibenz[b,e]oxepin-2-carbonyl]amino}acetate] | 175 to 178 °C |  |
| CN1CCC(=C2c3ccccc3COc3ccc(Br)cc32)CC1 [Compound 4, 4-(2-Bromo-6H-dibenz[b,e]oxepin-11-ylidene)-1-methylpiperidine] | 131 to 132 °C |  |
| CN1CCC(=C2c3ccccc3COc3ccc(C=CC(=O)O)cc32)CC1 [Compound 7, 3-[11-(1-Methylpiperidin-4-ylidene)-6,11-dihydrodibenz[b,e]oxepin-2-yl]acrylic acid] | 145 °C (dec.) | ED50 [1]: 0.3 mg/kg; ID50 (mg/kg)/ED50 (mg/kg) (H1 receptor): 4.4; ED50 (H1 receptor; [2]): 1.32 mg/kg |
| CN1CCC(=C2c3ccccc3COc3ccc(-c4nn[nH]n4)cc32)CC1 [Compound 8, 1-Methyl-4-[2-(2H-tetrazol-5-yl)-6H-dibenz[b,e]oxepin-11-ylidene]piperidine] | 225 °C (dec.) |  |
| CN1CCC(=C2c3ccccc3COc3ccc(CNC(=O)OC(C)(C)C)cc32)CC1 [Compound 9, tert-Butyl [11-(1-methylpiperidin-4-ylidene)-6,11-dihydrodibenz[b,e]oxepin-2-ylmethyl]carbamate] | 145 to 148 °C |  |
| CN1CCC(=C2c3ccccc3COc3cc(Br)ccc32)CC1 [Compound 12, 4-(3-Bromo-6H-dibenz[b,e]oxepin-11-ylidene)-1-methylpiperidine] | 127 to 128 °C |  |
| CN1CCC(=C2c3ccccc3COc3cc(C#N)ccc32)CC1 [Compound 13, 11-(1-Methylpiperidin-4-ylidene)-6,11-dihydrodibenz[b,e]oxepin-3-carbonitrile] | 175 to 176 °C |  |
| CCOC(=O)NCc1ccc2c(c1)C(=C1CCN(C)CC1)c1ccccc1CO2 [Compound 14, Ethyl [11-(1-methylpiperidin-4-ylidene)-6,11-dihydrodibenz[b,e]oxepin-2-ylmethyl]carbamate] | 135 to 136 °C |  |
| CC(=O)NCc1ccc2c(c1)C(=C1CCN(C)CC1)c1ccccc1CO2 [Compound 15, N-[11-(1-Methylpiperidin-4-ylidene)-6,11-dihydrodibenz[b,e]oxepin-2-ylmethyl]acetamide] | 195 to 196 °C |  |
| Cc1ccc2c(c1)C(=C1CCN(C)CC1)c1ccccc1CO2 [Compound 16, 1-Methyl-4-(2-methyl-6H-dibenz[b,e]oxepin-11-ylidene)-piperidine] | 133 to 134 °C |  |
| CN1CCC(=C2c3ccccc3COc3ccc(NC(N)=O)cc32)CC1 [Compound 17, [11-(1-Methylpiperidin-4-ylidene)-6,11-dihydrodibenz[b,e]oxepin-2-yl]urea] | 183 °C (dec.) | ED50 [1]: 0.62 mg/kg; ID50 (mg/kg)/ED50 (mg/kg) (H1 receptor): 60.6; ED50 (H1 receptor; [2]): 37.6 mg/kg |
| CN1CCC(=C2c3ccccc3COc3cc(C(=O)O)ccc32)CC1 [Compound 18, 11-(1-Methylpiperidin-4-ylidene)-6,11-dihydrodibenz[b,e]oxepin-3-carboxylic acid] | 208 to 212 °C |  |
| CN1CCC(=C2c3ccccc3COc3ccc(C(=O)NCCO)cc32)CC1 [Compound 19, N-(2-Hydroxyethyl)-11-(1-methylpiperidin-4-ylidene)-6,11-dihydrodibenz[b,e]oxepin-2-carboxamide] | 234 to 236 °C |  |

| Structure (SMILES) | melting point | other results |
| --- | --- | --- |
| CN1CCC(=C2c3ccccc3COc3ccc(CNC(=O)c4ccccc4)cc32)CC1 [Compound 20, N-[11-(1-Methylpiperidin-4-ylidene)-6,11-dihydrodibenz[b,e]oxepin-2-ylmethyl]benzamide] | 218 to 219 °C |  |
| CN1CCC(=C2c3ccccc3COc3ccc(CO)cc32)CC1 [Compound 21, [11-(1-Methylpiperidin-4-ylidene)-6,11-dihydrodibenz[b,e]oxepin-2-yl]methanol] | 140 to 143 °C |  |
| CN1CCC(=C2c3ccccc3COc3ccc(C=O)cc32)CC1 [Compound 23, 11-(1-Methylpiperidin-4-ylidene)-6,11-dihydrodibenz[b,e]oxepin-2-carboaldehyde] | 157 to 160 °C |  |
| CN1CCC(=C2c3ccccc3COc3ccc(CC(=O)O)cc32)CC1 [Compound 24, [11-(1-Methylpiperidin-4-ylidene)-6,11-dihydrodibenz[b,e]oxepin-2-yl]acetic acid] | 226 °C (dec.) | ED50 [1]: 0.03 mg/kg; ID50 (mg/kg)/ED50 (mg/kg) (H1 receptor): 53.3; ED50 (H1 receptor; [2]): 1.6 mg/kg |
| CN1CCC(=C2c3ccccc3COc3ccc(CNC(=O)CCC(=O)O)cc32)CC1 [Compound 26, N-[11-(1-Methylpiperidin-4-ylidene)-6,11-dihydrodibenz[b,e]oxepin-2-ylmethyl]succinamic acid] | 144 °C (dec.) |  |
| CCOC(=O)CCC(=O)NCc1ccc2c(c1)C(=C1CCN(C)CC1)c1ccccc1CO2 [Compound 27, Ethyl N-[11-(1-methylpiperidin-4-ylidene)-6,11-dihydrodibenz[b,e]oxepin-2-ylmethyl]succinamate] | 150 to 152 °C |  |
| CN1CCC(=C2c3cc(C(=O)O)ccc3COc3ccccc32)CC1 [Compound 28, 11-(1-Methylpiperidin-4-ylidene)-6,11-dihydrodibenz[b,e]oxepin-9-carboxylic acid] | 251 °C (dec.) |  |
| CCOC(=O)c1ccc2c(c1)C(=C1CCN(C)CC1)c1ccccc1OC2 [Compound 29, Ethyl 11-(1-methylpiperidin-4-ylidene)-6,11-dihydrodibenz[b,e]oxepin-9-carboxylate] | 124 °C (dec.) |  |
| CCOC(=O)C=Cc1cccc2c1OCc1ccccc1C2=C1CCN(C)CC1 [Compound 31, Ethyl 3-[11-(1-methylpiperidin-4-ylidene)-6,11-dihydrodibenz[b,e]oxepin-4-yl]acrylate] | 126 to 127 °C |  |
| CN1CCC(=C2c3ccccc3COc3c(C=CC(=O)O)cccc32)CC1 [Compound 32, 3-[11-(1-Methylpiperidin-4-ylidene)-6,11-dihydrodibenz[b,e]oxepin-4-yl]acrylic acid] | 188 °C (dec.) |  |
| CN1CCC(=C2c3ccc(C(=O)O)cc3COc3ccccc32)CC1 [Compound 33, 11-(1-Methylpiperidin-4-ylidene)-6,11-dihydrodibenz[b,e]oxepin-8-carboxylic acid] | 210 °C (dec.) |  |
| CN1CCC(=C2c3ccccc3COc3c(C#N)cccc32)CC1 [Compound 34, 11-(1-Methylpiperidin-4-ylidene)-6,11-dihydrodibenz[b,e]oxepin-4-carbonitrile] | 175 to 178 °C |  |
| CCOC(=O)C=Cc1ccc2c(c1)OCc1ccccc1C2=C1CCN(C)CC1 [Compound 35, Ethyl 3-[11-(1-methylpiperidin-4-ylidene)-6,11-dihydrodibenz[b,e]oxepin-3-yl]acrylate] | 173 to 175 °C |  |
| CCOC(=O)c1cccc2c1OCc1ccccc1C2=C1CCN(C)CC1 [Compound 36, Ethyl 11-(1-methylpiperidin-4-ylidene)-6,11-dihydrodibenz[b,e]oxepin-4-carboxylate] | 124 °C (dec.) |  |
| CN1CCC(=C2c3ccccc3COc3c(C(=O)O)cccc32)CC1 [Compound 37, 11-(1-Methylpiperidin-4-ylidene)-6,11-dihydrodibenz[b,e]oxepin-4-carboxylic acid] | 233 °C (dec.) |  |
| CN1CCC(=C2c3ccccc3COc3ccc(CCC(=O)O)cc32)CC1.Cl [Compound 43, 3-[11-(1-Methylpiperidin-4-ylidene)-6,11-dihydrodibenz[b,e]oxepin-2-yl]propionate hydrochloride] |  | ED50 [1]: 0.1 mg/kg; ID50 (mg/kg)/ED50 (mg/kg) (H1 receptor): >20.0; ED50 (H1 receptor; po, 1 h, read-out: ID50): < 2 mg/kg |
| CN1CCC(=C2c3ccccc3CC(=O)c3sccc32)CC1 [Ketotifen, reference compound] |  | ED50 [1]: 0.54 mg/kg |
